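Each compound was tested at five concentrations against cells in 96-well plates for 48 hours. At the TGI there is no net growth.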
Tests used:
Assay in all cases: DTP human tumour cell line panel, 48 h
[1] = system: K-562 leukemia
[2] = system: UACC-257 melanoma
[3] = system: HOP-62 NSCLC
[4] = system: HOP-92 NSCLC
[5] = system: SN12C renal
[6] = system: OVCAR-5 ovarian
[7] = system: CAKI-1 renal
[8] = system: SK-MEL-28 melanoma
[9] = system: SR leukemia
[10] = system: MDA-MB-231 breast
[11] = system: IGROV1 ovarian
[12] = system: NCI-H226 lung
[13] = system: OVCAR-8 ovarian
[14] = system: SNB-75 CNS
[15] = system: MALME-3M melanoma
[16] = system: U251 CNS
[17] = system: SK-MEL-2 melanoma
[18] = system: UACC-62 melanoma
[19] = system: LOX IMVI melanoma
[20] = system: OVCAR-3 ovarian
[21] = system: KM12 colon
[22] = system: 786-0 renal
[23] = system: SK-MEL-5 melanoma
[24] = system: NCI-H460 lung
[25] = system: RXF 393 renal
[26] = system: HL-60(TB) leukemia
[27] = system: NCI-H522 lung
[28] = system: UO-31 renal
[29] = system: HS 578T breast
[30] = system: OVCAR-4 ovarian
[31] = system: SW-620 colon
[32] = system: HT29 colon
[33] = system: PC-3 prostate
[34] = system: TK-10 renal
[35] = system: ACHN renal
[36] = system: A498 renal
[37] = system: M14 melanoma
[38] = system: HCT-15 colon
[39] = system: SNB-19 CNS
[40] = system: HCC-2998 colon
[41] = system: SF-268 CNS
[42] = system: MCF7 breast
[43] = system: T-47D breast
[44] = system: SF-295 CNS
[45] = system: SF-539 CNS
[46] = system: MOLT-4 leukemia
[47] = system: HCT-116 colon
[48] = system: EKVX NSCLC
[49] = system: A549 NSCLC
[50] = system: BT-549 breast
[51] = system: DU-145 prostate
[52] = system: MDA-N
[53] = system: NCI-H23 lung
[54] = system: RPMI-8226 leukemia
[55] = system: COLO 205 colon
[56] = system: SK-OV-3 ovarian
[57] = system: NCI/ADR-RES ovarian
[58] = system: MDA-MB-435
[59] = system: CCRF-CEM leukemia

Measured: TGI

COC(=O)c1c(C)cccc1/C=C1\Cc2ccc(C)c(C)c2C1=O
> 100 µM: [1] | [2] | [3] | [4] | [5] | [6] | [7] | [8] | [9] | [10] | [11] | [12] | [13] | [14] | [15] | [16] | [17] | [18] | [19] | [20] | [21] | [22] | [23] | [24] | [25] | [26] | [27] | [28] | [29] | [30] | [31] | [32] | [33] | [34] | [35] | [36] | [37] | [38] | [39] | [40] | [41] | [42] | [43] | [44] | [45] | [46] | [47] | [48] | [49] | [50] | [51] | [52] | [53] | [54]

O=S(=O)(/N=C(\NO)Nc1ccc(Cl)cc1)c1cc(C(F)(F)F)cc(C(F)(F)F)c1
90.4 µM: [1]
42.4 µM: [2]
31.5 µM: [33] | [39]
79 µM: [26]
35.9 µM: [12]
41 µM: [25]
32.2 µM: [7]
31.3 µM: [35]
34.8 µM: [20]
34.5 µM: [13] | [49]
35.5 µM: [55]
> 100 µM: [31] | [59]
73.6 µM: [24]
30.3 µM: [4]
60.5 µM: [29]
58.1 µM: [57]
36.1 µM: [52]
37.2 µM: [10]
30.1 µM: [6]
37.6 µM: [34] | [58]
33.4 µM: [22]
30.6 µM: [48]
33.1 µM: [14]
34.3 µM: [32]
32.8 µM: [23]
35.2 µM: [56]
67.2 µM: [43]
32.7 µM: [17]
34.2 µM: [19]
36.6 µM: [53]
36.4 µM: [44]
70.2 µM: [46]
50.7 µM: [41]
38.7 µM: [38]
36.9 µM: [3]
31.6 µM: [11] | [30]
31.4 µM: [16]
44.1 µM: [51]
30.7 µM: [18]
31.2 µM: [47]
32.1 µM: [5] | [37]
33.3 µM: [50]
37.1 µM: [15]
46.6 µM: [45]
40.4 µM: [27]
41.1 µM: [21]
39 µM: [8]

CCCCCC/C=C\CCCCCCCCC(=O)c1cccc(OC)c1OC
69.9 µM: [26]
> 100 µM: [1] | [2] | [3] | [55] | [5] | [6] | [7] | [8] | [9] | [10] | [11] | [12] | [13] | [14] | [15] | [16] | [56] | [17] | [18] | [57] | [21] | [22] | [27] | [28] | [29] | [31] | [32] | [33] | [34] | [35] | [36] | [58] | [37] | [38] | [39] | [40] | [41] | [43] | [44] | [45] | [46] | [47] | [48] | [49] | [50] | [51] | [52] | [53] | [59] | [54]
68.3 µM: [25]
32.9 µM: [19]
60.9 µM: [23]

COc1ccc(OC)c2sc(N3C(=O)/C(=C/c4cccc(Oc5ccccc5)c4)N=C3c3ccccc3)nc12
> 100 µM: [1] | [2] | [3] | [4] | [55] | [5] | [6] | [7] | [8] | [10] | [11] | [13] | [14] | [15] | [16] | [56] | [17] | [18] | [57] | [19] | [20] | [21] | [22] | [23] | [24] | [25] | [26] | [27] | [28] | [29] | [30] | [31] | [32] | [33] | [34] | [35] | [36] | [58] | [37] | [38] | [39] | [40] | [41] | [42] | [43] | [44] | [46] | [47] | [48] | [49] | [50] | [51] | [52] | [53] | [59] | [54]

From PubChem BioAssay (NCI)
